According to patent publication US20190218226A1, “PRODRUGS OF ANTICANCER AGENTS INDOTECAN AND INDIMITECAN” (Purdue Research Foundation, priority 2016, published 2019):
Structures can show the parent of a compound that is named as a salt. Where two headings read alike, the source gives them in different places.

How the values were obtained:
OVCAR-3 = test: NCI60 antiproliferative screen, ovarian OVCAR-3; format: cell-based, human; details: OVCAR-3, 48 h, sulforhodamine B, read-out: Cytotoxicity (GI50) Ovarian OVCAR-3
Protocol: (§1) All of the indenoisoquinolines were tested for antiproliferative activity in the National Cancer Institute's 60 cell line screen (NCI60). The cells were incubated with the tested compounds at 100, 10, 1, 0.1, and 0.01 μM concentrations for 48 h before treatment with sulforhodamine B dye. Optical densities were recorded, and their ratios relative to that of the control were plotted as percentage growth against the log 10 of the tested compound concentrations. The concentration that corresponds to 50% growth inhibition (GI50) is calculated by interpolation between the points located above and below the 50% percentage growth. The mean-graph midpoint (MGM) is an estimated average of the GI50 values derived from the NCI collection of 60 human cancer cell lines, where during the MGM calculation, anticancer agents with GI50 values that are outside the testing range of 0.01-100 μM are arbitrarily assigned the values of 0.01 and 100 μM, respectively. […] Also, the GI50 values of many of the substances vs. individual human cancer cell lines are below the lowest concentration used (0.01 μM) in the standard NCI testing protocol. […] For example, the MGM cytotoxicity values of 9, 15-17, and 19 are all very close to each other, but the Top1 inhibitory activities range from +++(+) to 0.

[1] = tested on: all human cancer cell lines successfully tested (NCI60); test: NCI60 mean graph midpoint for growth inhibition; format: cell-based
Protocol: as §1

SN12C = test: NCI60 antiproliferative screen, renal SN12C; format: cell-based, human; details: 48 h, sulforhodamine B, read-out: Cytotoxicity (GI50) renal SN12C
Protocol: as §1

MCF-7 = test: NCI60 antiproliferative screen, breast MCF-7; format: cell-based, human; details: MCF-7, 48 h, sulforhodamine B, read-out: Cytotoxicity (GI50) breast MCF-7
Protocol: as §1

SF-539 = test: NCI60 antiproliferative screen, CNS SF-539; format: cell-based, human; details: SF-539, 48 h, sulforhodamine B, read-out: Cytotoxicity (GI50) CNS SF-539
Protocol: as §1

HCT-116 = test: NCI60 antiproliferative screen, colon HCT-116; format: cell-based, human; details: HCT-116, 48 h, sulforhodamine B, read-out: Cytotoxicity (GI50) Colon HCT-116
Protocol: as §1

HOP-62 = test: NCI60 antiproliferative screen, lung HOP-62; format: cell-based, human; details: HOP-62, 48 h, sulforhodamine B, read-out: Cytotoxicity (GI50) lung HOP-62
Protocol: as §1

DU-145 = test: NCI60 antiproliferative screen, prostate DU-145; format: cell-based, human; details: DU-145, 48 h, sulforhodamine B, read-out: Cytotoxicity (GI50) prostate DU-145
Protocol: as §1

Human recombinant Top1 = target: T1, Human recombinant Top1 (Homo sapiens, UniProt P11387); test: Top1-mediated DNA cleavage assay; format: biochemical; design: key to Top1 inhibitory activity (level): 0, no detectable activity; +, weak activity; ++, similar activity to compound 4; +++, greater activity than 4; ++++, equipotent with 1; ++(+) would be between ++ and +++; details: for Top 1 Cleavage: graded relative to 1 μM camptothecin; for Top1 inhibitory activity (level): scored relative to compounds 1 and 4
T1 construct: made in house
T1 sequence (P11387 1-765): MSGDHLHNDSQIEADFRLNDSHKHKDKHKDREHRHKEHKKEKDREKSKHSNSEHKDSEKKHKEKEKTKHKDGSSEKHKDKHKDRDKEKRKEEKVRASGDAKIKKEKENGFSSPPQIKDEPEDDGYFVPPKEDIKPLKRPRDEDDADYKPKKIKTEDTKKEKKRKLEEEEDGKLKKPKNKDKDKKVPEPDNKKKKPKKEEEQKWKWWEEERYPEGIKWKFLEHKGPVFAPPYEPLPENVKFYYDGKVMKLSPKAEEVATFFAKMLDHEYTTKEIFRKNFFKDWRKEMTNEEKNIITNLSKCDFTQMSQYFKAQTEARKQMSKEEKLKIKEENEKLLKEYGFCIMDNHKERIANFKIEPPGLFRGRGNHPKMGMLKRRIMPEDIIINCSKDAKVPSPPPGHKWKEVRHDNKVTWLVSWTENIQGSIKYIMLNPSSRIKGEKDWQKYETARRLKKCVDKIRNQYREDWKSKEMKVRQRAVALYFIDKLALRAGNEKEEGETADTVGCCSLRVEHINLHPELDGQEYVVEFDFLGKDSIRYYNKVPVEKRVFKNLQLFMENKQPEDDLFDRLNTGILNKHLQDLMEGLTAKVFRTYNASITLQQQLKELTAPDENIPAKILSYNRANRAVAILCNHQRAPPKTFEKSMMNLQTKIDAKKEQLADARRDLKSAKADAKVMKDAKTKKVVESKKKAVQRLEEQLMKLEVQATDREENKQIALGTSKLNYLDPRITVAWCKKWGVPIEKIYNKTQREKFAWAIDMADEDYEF
Protocol: All of the new indenoisoquinoline derivatives were tested in Top1-mediated DNA cleavage assays. For this purpose, a ^32P 3′-end labeled 117-bp DNA fragment was incubated with Top1 at four concentrations of a tested compound. The DNA fragments were separated on 20% PAGE denaturing gels. The Top1 inhibitory activities were assigned on the basis of the visual inspection of the number and intensities of the gel bands corresponding to Top1-mediated DNA cleavage fragments and scored relative to the Top1 inhibitory activity of compounds 1 and 4. Results are expressed in semiquantitative fashion: 0, no detectable activity; +, weak activity; ++, similar activity to compound 4; +++, greater activity than 4; ++++, equipotent with 1. Ambiguous scores (e.g., between two values) are designated with parentheses (e.g., ++(+) would be between ++ and +++). […] After conversion of the hydroxyl to a dimethylcarbamate, the observed Top1 inhibitory activity increased from ++(+) for compound 8 to +++ for compound 10. Introduction of an acetyl group at the 0-2 position yielded compound 11, which was also a Top1 poison with activity at the ++ level. Subsequently, several hydrophobic substituents were attached to the 0-2 position.
Topoisomerase I-Mediated DNA Cleavage Reactions.
Human recombinant Top1 was purified from baculovirus as previously described (Morrell, A., et al., J. Med. Chem. 2007, 50, 2040-2048). DNA cleavage reactions were prepared as previously reported with the exception of the DNA substrate (Strumberg, D., et al., J. Med. Chem. 1999, 42, 446-457). Briefly, a 117-bp DNA oligonucleotide (Integrated DNA Technologies) encompassing the previously identified Top1 cleavage sites in the 161-bp fragment from pBluescript SK(−) phagemid DNA was employed. This 117-bp oligonucleotide contains a single 5′-cytosine overhang, which was 3′-end-labeled by fill-in reaction with [α-^32P]dGTP in React 2 buffer (50 mM Tris-HCl, pH 8.0, […], 50 mM NaCl) with 0.5 unit of DNA polymerase I (Klenow fragment, New England BioLabs). Unincorporated [^32P]dGTP was removed using mini Quick Spin DNA columns (Roche, Indianapolis, Ind.), and the eluate containing the 3′-end-labeled DNA substrate was collected. Approximately 2 nM radiolabeled DNA substrate was incubated with recombinant Top1 in 20 μL of reaction buffer [10 mM Tris-HCl (pH 7.5), 50 mM KCl, 5 mM MgCl2, 0.1 mM EDTA, and 15 μg/mL BSA] at 25° C. for 20 min in the presence of various concentrations of compounds. The reactions were terminated by adding SDS (0.5% final concentration) followed by the addition of two volumes of loading dye (80% formamide, 10 mM sodium hydroxide, 1 mM sodium EDTA, 0.1% xylene cyanol, and 0.1% bromophenol blue). Aliquots of each reaction mixture were subjected to 20% denaturing PAGE. Gels were dried and visualized by using a phosphoimager and ImageQuant software (Molecular Dynamics). For simplicity, cleavage sites were numbered as previously described in the 161-bp fragment.

UACC-62 = test: NCI60 antiproliferative screen, melanoma UACC-62; format: cell-based, human; details: UACC-62, 48 h, sulforhodamine B, read-out: Cytotoxicity (GI50) melanoma UACC-62
Protocol: as §1

[2] = all human cancer cell lines successfully tested, ± standard error, read-out: MGM (mean graph midpoint for growth inhibition)

COc1cc2c(=O)n(CCCN3CCOCC3)c3c(c2cc1OC(=O)N(C)C)C(=O)c1cc2c(cc1-3)OCO2 [Compound 10, 3-Methoxy-6-(3-morpholinopropyl)-5,12-dioxo-6,12-dihydro-5H-[1,3]dioxolo[4′,5′:5,6]indeno[1,2-c]isoquinolin-2-yl Dimethylcarbamate]
melting point: 268 to 270 °C (dec.)
GI50 (OVCAR-3; Homo sapiens): 12000 nM
GI50's against various cell lines (range in words) ([1]; NCI60): micromolar range
mean GI50 across NCI60 cell lines (MGM) [1, 2]: 3460 ± 999 nM
GI50 (SN12C; Homo sapiens): 2400 nM
GI50 (MCF-7; Homo sapiens, MCF7): 22 nM
GI50 (SF-539; Homo sapiens): 1860 nM
GI50 (HCT-116; Homo sapiens): 6070 nM
GI50 (HOP-62; Homo sapiens): 1700 nM
GI50 (DU-145; Homo sapiens): 1550 nM
Top1 inhibitory activity (in words) (Human recombinant Top1): slight improvement in Top1 inhibitory activity
Top 1 Cleavage (Human recombinant Top1): +++ (+++, between 75 and 95% activity)
Top1 inhibitory activity (level) (Human recombinant Top1): +++
GI50 (UACC-62; Homo sapiens): 4470 nM

COc1cc2c(=O)n(CCCN3CCOCC3)c3c(c2cc1OC(=O)c1cccnc1)C(=O)c1cc2c(cc1-3)OCO2 [Compound 14, 3-Methoxy-6-(3-morpholinopropyl)-5,12-dioxo-6,12-dihydro-5H-[1,3]dioxolo[4′,5′:5,6]indeno[1,2-c]isoquinolin-2-yl Nicotinate]
melting point: 277 to 279 °C (dec.)
GI50 (OVCAR-3; Homo sapiens): 295 nM
mean GI50 across NCI60 cell lines (MGM) ([1]; Homo sapiens, NCI60, read-out: MGM value): 158 ± 65 nM
mean GI50 across NCI60 cell lines (MGM) [1, 2]: 158 ± 65 nM
GI50 (SN12C; Homo sapiens): < 10 nM
GI50 (MCF-7; Homo sapiens, MCF7): < 10 nM
GI50 (SF-539; Homo sapiens): < 10 nM
GI50 (HCT-116; Homo sapiens): 30 nM
GI50 (HOP-62; Homo sapiens): 12 nM
GI50 (DU-145; Homo sapiens): 13 nM
Top1 inhibitory activity (in words) (Human recombinant Top1): slight improvement in Top1 inhibitory activity
Top 1 Cleavage (Human recombinant Top1): +++ (+++, between 75 and 95% activity)
Top1 inhibitory activity (level) (Human recombinant Top1): +++
GI50 (UACC-62; Homo sapiens): 22 nM

COc1cc2c3c(n(CCCN4CCOCC4)c(=O)c2cc1OC(=O)N(C)C)-c1cc2c(cc1C3=O)OCO2 [Compound 15, 2-Methoxy-6-(3-morpholinopropyl)-5,12-dioxo-6,12-dihydro-5H-[1,3]dioxolo[4′,5′:5,6]indeno[1,2-c]isoquinolin-3-yl Dimethylcarbamate]
melting point: 290 to 292 °C
GI50 (OVCAR-3; Homo sapiens): 105 nM
mean GI50 across NCI60 cell lines (MGM) [1, 2]: 70 ± 28 nM
GI50 (SN12C; Homo sapiens): 25 nM
GI50 (MCF-7; Homo sapiens, MCF7): < 10 nM
GI50 (SF-539; Homo sapiens): 21 nM
GI50 (HCT-116; Homo sapiens): 26 nM
GI50 (HOP-62; Homo sapiens): 32 nM
GI50 (DU-145; Homo sapiens): 32 nM
GI50 (UACC-62; Homo sapiens): 17 nM

COc1cc2c3c(n(CCCN4CCOCC4)c(=O)c2cc1OC(=O)c1ccccc1)-c1cc2c(cc1C3=O)OCO2 [Compound 18, 2-Methoxy-6-(3-morpholinopropyl)-5,12-dioxo-6,12-dihydro-5H-[1,3]dioxolo[4′,5′:5,6]indeno[1,2-c]isoquinolin-3-yl Benzoate]
GI50 (OVCAR-3): 30900 nM
GI50's against various cell lines (range in words) ([1]; NCI60): micromolar range
cytotoxicity relative to parent compound (in words) ([1]; NCI60): significantly less cytotoxic than their respective parent compounds
mean GI50 across NCI60 cell lines (MGM) [1, 2]: 3190 ± 622 nM
GI50 (SN12C): 195 nM
GI50 (MCF-7): 15 nM
GI50 (SF-539): 135 nM
GI50 (HCT-116): 5890 nM
GI50 (HOP-62): 2140 nM
GI50 (DU-145): 724 nM
Top1 inhibitory activity (in words) (Human recombinant Top1): weak Top1 poisons
Top 1 Cleavage (Human recombinant Top1): + (+, between 20 and 50% activities)
GI50 (UACC-62): 59 nM

COc1cc2c3c(n(CCCN4CCOCC4)c(=O)c2cc1OS(=O)(=O)O)-c1cc2c(cc1C3=O)OCO2 [Compound 20, 2-Methoxy-6-(3-morpholinopropyl)-5,12-dioxo-6,12-dihydro-5H-[1,3]dioxolo[4′,5′:5,6]indeno[1,2-c]isoquinolin-3-yl Hydrogen Sulfate]
GI50 (OVCAR-3): 1120 nM
mean GI50 across NCI60 cell lines (MGM) [1, 2]: 912 nM
GI50 (SN12C): 355 nM
GI50 (MCF-7): 209 nM
GI50 (SF-539): 263 nM
GI50 (HCT-116): 389 nM
GI50 (HOP-62): 389 nM
GI50 (DU-145): 417 nM
Top 1 Cleavage (Human recombinant Top1): ++ (++, between 50 and 75% activity)
GI50 (UACC-62): 263 nM
